Source: ChEMBL document CHEMBL2086254, “Synthesis and identification of novel indolo[2,3-a]pyrimido[5,4-c]carbazoles as a new class of anti-cancer agents” (Eur J Med Chem, 2012)
Active and inactive are the calls of the source. The rule behind the calls is not given here.

Tests used:
[1] = system: EKVX; assay: Cytotoxicity against human EKVX cells assessed as cell growth at 10 uM after 48 hrs by SRB assay relative to control; type: functional; conditions: read-out: Activity
[2] = system: NCI-H460; assay: Cytotoxicity against human NCI-H460 cells assessed as cell growth at 10 uM after 48 hrs by SRB assay relative to control; type: functional; conditions: NCI-H460, 48 h, read-out: Activity
[3] = system: NCI-H522; assay: Cytotoxicity against human NCI-H522 cells assessed as cell growth at 10 uM after 48 hrs by SRB assay relative to control; type: functional; conditions: NCI-H522, 48 h, read-out: Activity
[4] = system: HL-60; assay: Cytotoxicity against human HL60 cells assessed as cell growth at 10 uM after 48 hrs by SRB assay relative to control; type: functional; conditions: HL-60, 48 h, read-out: Activity
[5] = system: SF-268; assay: Cytotoxicity against human SF268 cells assessed as cell growth at 10 uM after 48 hrs by SRB assay relative to control; type: functional; conditions: SF-268, 48 h, read-out: Activity
[6] = system: DU-145; assay: Cytotoxicity against human DU145 cells assessed as cell growth at 10 uM after 48 hrs by SRB assay relative to control; type: functional; conditions: DU-145, 48 h, read-out: Activity
[7] = biological target: DNA topoisomerase 2-alpha (Homo sapiens) (UniProt P11388); assay: Inhibition of human DNA topoisomerase 2 at 100 uM after 1 hr by agarose gel circular DNA decatenation assay
Chain of DNA topoisomerase 2-alpha (Homo sapiens) (P11388 whole entry): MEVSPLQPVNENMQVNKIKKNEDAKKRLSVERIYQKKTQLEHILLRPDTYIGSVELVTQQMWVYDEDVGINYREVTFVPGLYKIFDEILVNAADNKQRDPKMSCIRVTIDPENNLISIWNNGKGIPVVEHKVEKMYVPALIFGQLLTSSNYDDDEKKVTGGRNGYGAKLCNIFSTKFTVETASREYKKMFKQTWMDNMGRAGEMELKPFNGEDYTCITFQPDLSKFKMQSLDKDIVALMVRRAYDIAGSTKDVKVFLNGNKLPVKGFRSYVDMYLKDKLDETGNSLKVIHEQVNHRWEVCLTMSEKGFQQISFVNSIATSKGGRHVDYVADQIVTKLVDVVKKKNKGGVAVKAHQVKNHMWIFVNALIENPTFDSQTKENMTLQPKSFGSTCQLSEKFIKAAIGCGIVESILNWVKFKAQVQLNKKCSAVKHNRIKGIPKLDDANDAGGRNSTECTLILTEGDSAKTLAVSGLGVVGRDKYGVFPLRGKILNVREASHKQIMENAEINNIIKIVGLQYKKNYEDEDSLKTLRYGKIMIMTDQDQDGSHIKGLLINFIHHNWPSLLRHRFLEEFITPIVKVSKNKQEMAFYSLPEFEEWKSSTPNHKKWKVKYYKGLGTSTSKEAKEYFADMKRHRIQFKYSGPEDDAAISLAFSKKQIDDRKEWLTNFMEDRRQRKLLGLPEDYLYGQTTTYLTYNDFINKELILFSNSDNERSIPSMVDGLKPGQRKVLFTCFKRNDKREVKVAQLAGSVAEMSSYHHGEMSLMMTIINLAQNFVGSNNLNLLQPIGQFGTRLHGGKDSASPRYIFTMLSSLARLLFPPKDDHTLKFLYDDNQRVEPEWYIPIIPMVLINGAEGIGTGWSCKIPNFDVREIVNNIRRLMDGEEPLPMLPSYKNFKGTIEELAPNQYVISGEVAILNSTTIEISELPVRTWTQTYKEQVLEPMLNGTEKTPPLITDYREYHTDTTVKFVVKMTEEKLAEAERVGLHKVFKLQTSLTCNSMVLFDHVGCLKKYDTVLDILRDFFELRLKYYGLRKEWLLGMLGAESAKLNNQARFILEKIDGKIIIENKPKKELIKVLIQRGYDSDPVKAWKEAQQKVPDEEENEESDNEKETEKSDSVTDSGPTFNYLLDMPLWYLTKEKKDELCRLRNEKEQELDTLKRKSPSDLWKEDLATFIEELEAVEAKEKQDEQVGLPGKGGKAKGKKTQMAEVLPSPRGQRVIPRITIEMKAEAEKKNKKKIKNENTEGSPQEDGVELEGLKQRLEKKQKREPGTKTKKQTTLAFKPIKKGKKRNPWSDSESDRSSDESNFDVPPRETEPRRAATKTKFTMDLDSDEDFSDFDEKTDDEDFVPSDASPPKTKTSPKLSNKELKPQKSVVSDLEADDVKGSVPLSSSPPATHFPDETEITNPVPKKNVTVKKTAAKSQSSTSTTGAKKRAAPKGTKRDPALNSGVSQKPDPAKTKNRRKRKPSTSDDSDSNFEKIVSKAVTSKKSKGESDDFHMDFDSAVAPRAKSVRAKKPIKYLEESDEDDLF

[8] = system: HL-60; assay: Cytotoxicity against human HL60 cells after 48 hrs by SRB assay; type: functional; conditions: HL-60, 48 h
[9] = system: HT-29; assay: Cytotoxicity against human HT-29 cells assessed as cell growth at 10 uM after 48 hrs by SRB assay relative to control; type: functional; conditions: HT-29, 48 h, read-out: Activity
[10] = system: HT-29; assay: Cytotoxicity against human HT-29 cells after 48 hrs by SRB assay; type: functional; conditions: HT-29, 48 h
[11] = system: MDA-MB-231; assay: Cytotoxicity against human MDA-MB-231 cells assessed as cell growth at 10 uM after 48 hrs by SRB assay relative to control; type: functional; conditions: MDA-MB-231, 48 h, read-out: Activity
[12] = system: SN12C; assay: Cytotoxicity against human SN12C cells assessed as cell growth at 10 uM after 48 hrs by SRB assay relative to control; type: functional; conditions: read-out: Activity
[13] = system: DU-145; assay: Cytotoxicity against human DU145 cells after 48 hrs by SRB assay; type: functional; conditions: DU-145, 48 h
[14] = system: SK-MEL-2; assay: Cytotoxicity against human SK-MEL-2 cells after 48 hrs by SRB assay; type: functional; conditions: SK-MEL-2, 48 h
[15] = system: A549; assay: Cytotoxicity against human A549 cells after 48 hrs by SRB assay; type: functional; conditions: A549, 48 h
[16] = system: SNB-19; assay: Cytotoxicity against human SNB19 cells assessed as cell growth at 10 uM after 48 hrs by SRB assay relative to control; type: functional; conditions: SNB-19, 48 h, read-out: Activity
[17] = system: NCI-H322M; assay: Cytotoxicity against human NCI-H322M cells assessed as cell growth at 10 uM after 48 hrs by SRB assay relative to control; type: functional; conditions: read-out: Activity
[18] = system: CCRF-CEM; assay: Cytotoxicity against human CCRF-CEM cells assessed as cell growth at 10 uM after 48 hrs by SRB assay relative to control; type: functional; conditions: read-out: Activity
[19] = system: MOLT-4; assay: Cytotoxicity against human MOLT4 cells assessed as cell growth at 10 uM after 48 hrs by SRB assay relative to control; type: functional; conditions: MOLT-4, 48 h, read-out: Activity
[20] = system: UACC-257; assay: Cytotoxicity against human UACC257 cells assessed as cell growth at 10 uM after 48 hrs by SRB assay relative to control; type: functional; conditions: UACC-257, 48 h, read-out: Activity
[21] = system: KM12; assay: Cytotoxicity against human KM12 cells assessed as cell growth at 10 uM after 48 hrs by SRB assay relative to control; type: functional; conditions: KM12, 48 h, read-out: Activity
[22] = system: PC-3; assay: Cytotoxicity against human PC3 cells assessed as cell growth at 10 uM after 48 hrs by SRB assay relative to control; type: functional; conditions: PC-3, 48 h, read-out: Activity
[23] = system: Malme-3M; assay: Cytotoxicity against human MALME-3M cells assessed as cell growth at 10 uM after 48 hrs by SRB assay relative to control; type: functional; conditions: read-out: Activity
[24] = system: COLO 205; assay: Cytotoxicity against human COLO205 cells assessed as cell growth at 10 uM after 48 hrs by SRB assay relative to control; type: functional; conditions: COLO 205, 48 h, read-out: Activity
[25] = system: SR; assay: Cytotoxicity against human SR cells assessed as cell growth at 10 uM after 48 hrs by SRB assay relative to control; type: functional; conditions: read-out: Activity
[26] = system: KM12; assay: Cytotoxicity against human KM12 cells after 48 hrs by SRB assay; type: functional; conditions: KM12, 48 h
[27] = system: T47D; assay: Cytotoxicity against human T47D cells assessed as cell growth at 10 uM after 48 hrs by SRB assay relative to control; type: functional; conditions: read-out: Activity
[28] = system: A498; assay: Cytotoxicity against human A498 cells after 48 hrs by SRB assay; type: functional; conditions: A498, 48 h
[29] = system: Malme-3M; assay: Cytotoxicity against human MALME-3M cells after 48 hrs by SRB assay; type: functional
[30] = system: UACC-62; assay: Cytotoxicity against human UACC62 cells after 48 hrs by SRB assay; type: functional; conditions: UACC-62, 48 h
[31] = system: 786-0; assay: Cytotoxicity against human 786-0 cells assessed as cell growth at 10 uM after 48 hrs by SRB assay relative to control; type: functional; conditions: 786-0, 48 h, read-out: Activity
[32] = system: NCI-H23; assay: Cytotoxicity against human NCI-H23 cells after 48 hrs by SRB assay; type: functional; conditions: NCI-H23, 48 h
[33] = system: BT-549; assay: Cytotoxicity against human BT549 cells assessed as cell growth at 10 uM after 48 hrs by SRB assay relative to control; type: functional; conditions: BT-549, 48 h, read-out: Activity
[34] = system: HCT-116; assay: Cytotoxicity against human HCT116 cells after 48 hrs by SRB assay; type: functional; conditions: HCT-116, 48 h
[35] = read-out: LC50 (the source's name)

For `Cn1c2ccccc2c2c3nc(N)[nH]c(=O)c3c3c4ccccc4n(C)c3c21`, which growth at 10 µM [1] is on record?
Its growth at 10 µM is 73.5%.

What about the growth at 10 µM [2] of the same compound?
Its growth at 10 µM is 40.6%.

And the growth at 10 µM [3]?
Its growth at 10 µM is 46.1%.

And the growth at 10 µM [4]?
Its growth at 10 µM is 34.3%.

What about the growth at 10 µM [5] of the same compound?
Its growth at 10 µM is 73.5%.

What about the growth at 10 µM [6] of the same compound?
The growth at 10 µM was 44.9%.

And the inhibition [7]?
The inhibition was “inactive”.

And the GI50 [8]?
The GI50 was 4.19 µM.

And the TGI [8]?
The TGI was 38 µM.

And the CC50 [8, 35]?
Its CC50 is > 100 µM.

What about the growth at 10 µM [9] of the same compound?
The growth at 10 µM was 17.6%.

And the GI50 [10]?
The GI50 was 3.98 µM.

What about the TGI [10] of the same compound?
The TGI was 66.1 µM.

And the CC50 [10, 35]?
The CC50 was > 100 µM.

What about the growth at 10 µM [11] of the same compound?
The growth at 10 µM was 103%.

And the growth at 10 µM [12]?
The growth at 10 µM was 61.4%.

And the GI50 [13]?
Its GI50 is 8.2 µM.

What about the TGI [13] of the same compound?
Its TGI is > 100 µM.

What about the CC50 [13, 35] of the same compound?
Its CC50 is > 100 µM.

And the GI50 [14]?
Its GI50 is 1900 nM.

And the TGI [14]?
The TGI was 7.59 µM.

And the CC50 [14, 35]?
The CC50 was 76.5 µM.

And the GI50 [15]?
The GI50 was 5.8 µM.

What about the TGI [15] of the same compound?
The TGI was > 100 µM.

What about the CC50 [15, 35] of the same compound?
The CC50 was > 100 µM.

What about the growth at 10 µM [16] of the same compound?
The growth at 10 µM was 122%.

What about the growth at 10 µM [17] of the same compound?
Its growth at 10 µM is 32.9%.

What about the growth at 10 µM [18] of the same compound?
Its growth at 10 µM is 35.2%.

What about the growth at 10 µM [19] of the same compound?
The growth at 10 µM was 53.3%.

And the growth at 10 µM [20]?
The growth at 10 µM was 79.7%.

What about the growth at 10 µM [21] of the same compound?
The growth at 10 µM was 19.9%.

What about the growth at 10 µM [22] of the same compound?
Its growth at 10 µM is 59.1%.

And the growth at 10 µM [23]?
Its growth at 10 µM is 36.2%.

And the growth at 10 µM [24]?
The growth at 10 µM was 67.9%.

And the growth at 10 µM [25]?
The growth at 10 µM was 64%.

What about the GI50 [26] of the same compound?
The GI50 was 3.24 µM.

And the TGI [26]?
The TGI was 32.3 µM.

And the CC50 [26, 35]?
Its CC50 is > 100 µM.

And the growth at 10 µM [27]?
The growth at 10 µM was 75%.

What about the GI50 [28] of the same compound?
The GI50 was 27.4 µM.

What about the TGI [28] of the same compound?
The TGI was 97.1 µM.

What about the CC50 [28, 35] of the same compound?
Its CC50 is > 100 µM.

What about the GI50 [29] of the same compound?
The GI50 was 14.5 µM.

And the TGI [29]?
The TGI was 74.8 µM.

What about the CC50 [29, 35] of the same compound?
The CC50 was > 100 µM.

What about the GI50 [30] of the same compound?
Its GI50 is 16.1 µM.

And the TGI [30]?
The TGI was > 100 µM.

And the CC50 [30, 35]?
The CC50 was > 100 µM.

And the growth at 10 µM [31]?
Its growth at 10 µM is 62.3%.

What about the GI50 [32] of the same compound?
Its GI50 is 3.51 µM.

And the TGI [32]?
The TGI was > 100 µM.

And the CC50 [32, 35]?
The CC50 was > 100 µM.

And the growth at 10 µM [33]?
The growth at 10 µM was 76.6%.

What about the GI50 [34] of the same compound?
Its GI50 is 3.2 µM.

What about the TGI [34] of the same compound?
Its TGI is 35.3 µM.

And the CC50 [34, 35]?
The CC50 was > 100 µM.
